Reference: patent publication US20250100963A1, “SULFONATED AND PHOSPHORYLATED AROMATIC MOLECULES” (Xavier University of Louisiana, priority 2023, published 2025)
Where two headings read alike, the source gives them in different places.

Experiments:
CatG [1] = molecular target: T1, CatG (Homo sapiens, UniProt P08311); experiment: Michaelis-Menten kinetics of chromogenic substrate (S-7388) hydrolysis by CatG; assay type: biochemical
T1 sequence (P08311 21-244): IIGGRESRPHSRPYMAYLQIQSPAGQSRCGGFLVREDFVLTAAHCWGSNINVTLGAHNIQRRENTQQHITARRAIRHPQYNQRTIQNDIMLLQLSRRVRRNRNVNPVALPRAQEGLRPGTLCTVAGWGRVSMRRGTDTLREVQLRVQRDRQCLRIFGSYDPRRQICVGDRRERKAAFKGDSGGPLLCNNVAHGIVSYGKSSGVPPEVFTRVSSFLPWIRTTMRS
Experimental: The initial rate of the hydrolysis of the chromogenic substrate by CatG was monitored from the linear increase in absorbance corresponding to less than 10% consumption of substrate at 37° C. in pH 7.4 20 mM Tris buffer containing 100 mM NaCl, 2.5 mM CaCl2, 0.1% PEG 8000 and 0.05% tween 80. The initial rate was measured at various substrate concentrations ([…]) at fixed enzyme concentration (30 nM), and fixed sulfonated compounds concentrations (0, 25, 50, 100, 200, 400, and 800 nM). The data were fitted by the Michaelis-Menten Equation (3) to determine the KM (substrate affinity) and VMAX (maximum reaction velocity).
To understand the mechanistic basis of inhibition, Michaelis-Menten kinetics of S-7388 hydrolysis by CatG was performed in the presence of inhibitor 2 at pH 7.4 and 37° C. […] Table 5 and FIG. 5.

CatG [2] = molecular target: T1, CatG; experiment: Direct inhibition of human CatG, chromogenic substrate hydrolysis assay; assay type: biochemical
Experimental: The method further comprises inhibition of proteases. […] To each well of a 96-well microplate containing 88 μl of 20 mM tris buffer containing 100 mM NaCl, 2.5 mM CaCl2, 0.1% PEG 8000 and 0.05% tween 80 was added 3 μl of CatG (final concentration of 30 nM), and 5 μl of H2O or potential inhibitor (final concentration of 0-100 μM). Following a 5-min incubation, 3 μl of CatG substrate was added (final concentration 750 μM) and the residual CatG activity was obtained from the initial rate of increase of absorbance at 405 nm. The relative residual activity of CatG at each of the inhibitor concentrations was obtained from the ratio of CatG activity in the presence and absence of the inhibitor. Logistic Equation (1) was used to plot the dose-dependence curve to obtain the IC50 (potency) and efficacy of CatG inhibition. Here, Y is the ratio of residual CatG activity in the presence of inhibitor to that in its absence, YO and YM are the minimum and maximum values of fractional residual CatG activity, respectively, IC50 is the concentration of the inhibitor that results in 50% inhibition of CatG activity and HS is the Hill slope.
To each well of a 96-well microplate containing 88 μl of 20 mM tris buffer containing 100 mM NaCl, 2.5 mM CaCl2, 0.1% PEG 8000 and 0.05% tween 80 was added 3 μl of CatG (final concentration of 30 nM), and 5 μl of H2O or potential inhibitor (final concentration of 0-100 μM). Following a 5-min incubation, 3 μl of CatG substrate was added (final concentration 750 μM) and the residual CatG activity was obtained from the initial rate of increase of absorbance at 405 nm. The relative residual activity of CatG at each of the inhibitor concentrations was obtained from the ratio of CatG activity in the presence and absence of the inhibitor. Logistic Equation (1) was used to plot the dose-dependence curve to obtain the IC50 (potency) and efficacy of CatG inhibition. Here, Y is the ratio of residual CatG activity in the presence of inhibitor to that in its absence, YO and YM are the minimum and maximum values of fractional residual CatG activity, respectively, IC50 is the concentration of the inhibitor that results in 50% inhibition of CatG activity and HS is the Hill slope.

- Decrease of VMAX, absence of inhibitor vs 800 nM (CatG [1]; 0 vs 800 nM inhibitor): ~3 fold
- Km (CatG [1]; Formula II 40 nM): 1200 ± 300 µM
- Vmax (CatG [1]; Formula II 40 nM): 26.1 ± 2.5 mAU/min
- Km (CatG [1]; Formula II 100 nM): 1290 ± 190 µM
- Vmax (CatG [1]; Formula II 100 nM): 17.6 ± 1.1 mAU/min
- Km (CatG [1]; Formula II 400 nM): 1400 ± 220 µM
- Vmax (CatG [1]; Formula II 400 nM): 11.4 ± 0.8 mAU/min
- Km (CatG [1]; Formula II 800 nM): 1320 ± 207 µM
- Vmax (CatG [1]; Formula II 800 nM): 10.6 ± 0.95 mAU/min
- Vmax (CatG [1]; Formula II 800 nM, listed as inhibitor 2): 10.6±0.95 mAU/min
- KM for S-7388 in the presence or absence of inhibitor (CatG [1]; inhibitor 0-800 nM, pH 7.4, 37° C.): essentially unchanged
- IC50 (CatG [2]; Table 6, read-out: CATG IC50): 90 nM
- HS (Hill slope) (CatG [2]; Tris buffer pH 7.4, 37° C.): 1.5 ± 0.3
- ΔY (efficacy) (CatG [2]; Tris buffer pH 7.4, 37° C.): 82.5 ± 7.4%
- IC50 (CatG [2]; Tris buffer pH 7.4, 37° C., 100 mM NaCl, read-out: IC50): 90 ± 10 nM
Compound: O=C(Nc1cc(C(=O)Nc2ccc(S(=O)(=O)O)cc2S(=O)(=O)O)cc(C(=O)Nc2ccc(S(=O)(=O)O)cc2S(=O)(=O)O)c1)Nc1cc(C(=O)Nc2ccc(S(=O)(=O)O)cc2S(=O)(=O)O)cc(C(=O)Nc2ccc(S(=O)(=O)O)cc2S(=O)(=O)O)c1 [Formula II, 4,4′,4″,4′-((5,5′-(carbonylbis(azanediyl))bis(isophthaloyl))tetrakis(azanediyl))tetrakis(benzene-1,3-disulfonic acid)]
